The source of these data is patent US10329260B2, “Human plasma kallikrein inhibitors” (BioCryst Pharmaceuticals, Inc., priority 2014, dated 2019).

The target in one data set is human plasma kallikrein (Homo sapiens (Human), UniProt P03952). The data set can be described thus: Plasma Kallikrein Activity Assay. In kind it is biochemical. Conditions: 2 nM kallikrein, 80 μM chromogenic substrate S2302, 30° C., pH 7.8; Ki by Cheng-Prusoff equation.
The test system of data set [1] is patients with hereditary angioedema (HAE). To be noted: cited from earlier work.
The next data set concerns sepsis patients. Conditions: cited from earlier work.
Data set [2] deals with lipopolysaccharide (LPS)- or bacterial-induced sepsis in animals. Conditions: cited from earlier work.
Data set [3] deals with animal model of ischemic stroke. Conditions: cited from earlier work.
Data set [4] concerns mouse model of middle cerebral artery occlusion (MCAO). Conditions: cited from earlier work.

human plasma kallikrein, sequence (P03952 whole entry partner, looked up): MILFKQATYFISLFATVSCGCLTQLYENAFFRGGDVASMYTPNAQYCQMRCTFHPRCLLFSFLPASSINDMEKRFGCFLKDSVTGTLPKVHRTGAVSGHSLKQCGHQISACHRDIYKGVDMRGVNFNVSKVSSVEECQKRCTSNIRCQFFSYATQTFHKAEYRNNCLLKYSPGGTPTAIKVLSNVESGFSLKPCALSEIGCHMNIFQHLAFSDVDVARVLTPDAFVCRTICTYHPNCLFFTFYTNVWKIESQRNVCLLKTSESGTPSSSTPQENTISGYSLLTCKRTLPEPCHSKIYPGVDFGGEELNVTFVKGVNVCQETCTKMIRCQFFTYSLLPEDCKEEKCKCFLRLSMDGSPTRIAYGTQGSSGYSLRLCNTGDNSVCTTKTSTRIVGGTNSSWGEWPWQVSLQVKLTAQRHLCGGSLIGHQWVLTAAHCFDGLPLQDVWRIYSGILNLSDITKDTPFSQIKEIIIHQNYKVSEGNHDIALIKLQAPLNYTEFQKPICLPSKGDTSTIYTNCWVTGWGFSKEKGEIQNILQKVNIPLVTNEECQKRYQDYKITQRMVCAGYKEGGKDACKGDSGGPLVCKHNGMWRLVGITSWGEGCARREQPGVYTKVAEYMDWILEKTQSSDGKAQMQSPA
human plasma kallikrein, sequence (P03952 whole entry, looked up): as the sequence (P03952 whole entry partner, looked up) above
Description for human plasma kallikrein: The effect of compounds of the invention on human plasma kallikrein activity was determined using the chromogenic substrates (DiaPharma Group, Inc., West Chester, Ohio, USA). In these experiments, 2 nM kallikrein (Enzyme Research Laboratories, South Bend, Ind., USA) was incubated with 80 μM S2302 (H-D-Pro-Phe-Arg-p-nitroaniline) in the absence or presence of increasing concentrations of compounds of the invention in a final volume of 200 μL Tris-HCl buffer (200 mM NaCl; 2.5 mM CaCl2; 50 mM Tris-HCl, pH 7.8).
Data were analyzed using SigmaPlot software (Systat Software, Inc., San Jose, Calif., USA) (Four Parameter Logistic Curve).

For orientation: Ki means a dissociation constant, usually derived from enzyme kinetics or from competition with a known ligand. Read a high Ki as lower affinity. Molecule `NCc1cccc(-n2nc(C(F)(F)F)cc2C(=O)Nc2cccc(C(NCCCn3ccnc3)c3ccccc3)c2)c1` (stereo not shown) [Compound 183b, N-(3-(((3-(1H-Imidazol-1-yl)propyl)amino)(phenyl)methyl)phenyl)-1-(3-(aminomethyl)phenyl)-3-(trifluoromethyl)-1H-pyrazole-5-carboxamide] returned a Ki on human plasma kallikrein of more than 100 nM.
`CN(C)C(c1ccccc1)c1cccc(NC(=O)c2cc(C(F)(F)F)nn2-c2cccc(CN)c2)c1` (stereo not shown) [Compound 184b, 1-(3-(Aminomethyl)phenyl)-N-(3-((dimethylamino)(phenyl)methyl)phenyl)-3-(trifluoromethyl)-1H-pyrazole-5-carboxamide]: at human plasma kallikrein, the Ki is more than 100 nM.
Still for that read-out and setting: the result for `NCc1cccc(-n2nc(C(F)(F)F)cc2C(=O)Nc2cccc(C(NC3CCCCC3)c3ccccc3)c2)c1` (stereo not shown) [Compound 185b, 1-(3-(Aminomethyl)phenyl)-N-(3-((cyclohexylamino)(phenyl)methyl)phenyl)-3-(trifluoromethyl)-1H-pyrazole-5-carboxamide] reads more than 100 nM.
Still for that read-out and setting: the result for `NCc1cccc(-n2nc(C(F)(F)F)cc2C(=O)Nc2cccc(C(NCc3ccncc3)c3ccccc3)c2)c1` (stereo not shown) [Compound 186b, 1-(3-(Aminomethyl)phenyl)-N-(3-(phenyl((pyridin-4-ylmethyl)amino)methyl)phenyl)-3-(trifluoromethyl)-1H-pyrazole-5-carboxamide] reads more than 100 nM; that for `CC(C)(C)CNC(c1ccccc1)c1cccc(NC(=O)c2cc(C(F)(F)F)nn2-c2cccc(CN)c2)c1` (stereo not shown) [Compound 187b, 1-(3-(Aminomethyl)phenyl)-N-(3-((neopentylamino)(phenyl)methyl)phenyl)-3-(trifluoromethyl)-1H-pyrazole-5-carboxamide], more than 100 nM; that for `NCc1cccc(-n2nc(C(F)(F)F)cc2C(=O)Nc2cccc(C(NCc3ccc(N)cc3)c3ccccc3)c2)c1` (stereo not shown) [Compound 189b, N-(3-(((4-Aminobenzyl)amino)(phenyl)methyl)phenyl)-1-(3-(aminomethyl)phenyl)-3-(trifluoromethyl)-1H-pyrazole-5-carboxamide], more than 100 nM.
On the same count and under the same terms, as for `CSCCNC(c1ccccc1)c1cccc(NC(=O)c2cc(C(F)(F)F)nn2-c2cccc(CN)c2)c1` (stereo not shown) [Compound 190b, 1-(3-(aminomethyl)phenyl)-N-(3-(((2-(methylthio)ethyl)amino)(phenyl)methyl)phenyl)-3-(trifluoromethyl)-1H-pyrazole-5-carboxamide], the figure is more than 100 nM.
Molecule `NCc1cccc(-n2nc(C(F)(F)F)cc2C(=O)Nc2cccc(C(NCCCO)c3ccccc3)c2)c1` (stereo not shown) [Compound 191b, 1-(3-(Aminomethyl)phenyl)-N-(3-(((3-hydroxypropyl)amino)(phenyl)methyl)phenyl)-3-(trifluoromethyl)-1H-pyrazole-5-carboxamide] gave a Ki on human plasma kallikrein of more than 100 nM.
Still for that read-out and setting: the result for `NCc1cccc(-n2nc(C(F)(F)F)cc2C(=O)Nc2cccc(C(NCC3CC3)c3ccccc3Cl)c2)c1` (stereo not shown) [Compound 194f, 1-(3-(aminomethyl)phenyl)-N-(3-((2-chlorophenyl)((cyclopropylmethyl)amino)methyl)phenyl)-3-(trifluoromethyl)-1H-pyrazole-5-carboxamide] reads 0.1 to 50 nM; that for `CC(C)(C)c1ccc(C(NCC2CC2)c2cccc(NC(=O)c3cc(C(F)(F)F)nn3-c3cccc(CN)c3)c2)cc1` (stereo not shown) [Compound 203f, 1-(3-(aminomethyl)phenyl)-N-(3-((4-(tert-butyl)phenyl)((cyclopropylmethyl)amino)methyl)phenyl)-3-(trifluoromethyl)-1H-pyrazole-5-carboxamide], more than 100 nM.
Same read-out and setting: the result for `Nc1n[nH]c2ccc(-n3nc(C(F)(F)F)cc3C(=O)Nc3cc(C(NCC4CC4)c4ccccc4)ccc3F)cc12` (stereo not shown) [Compound 224b, 1-(3-amino-1H-indazol-5-yl)-N-(5-((cyclopropylmethylamino)(phenyl)methyl)-2-fluorophenyl)-3-(trifluoromethyl)-1H-pyrazole-5-carboxamide] reads more than 100 nM; that for `Nc1ncnc2ccc(-n3nc(C(F)(F)F)cc3C(=O)Nc3cc(C(NCC4CC4)c4ccccc4)ccc3F)cc12` (stereo not shown) [Compound 226a, 1-(4-aminoquinazolin-6-yl)-N-(5-((cyclopropylmethylamino)(phenyl)methyl)-2-fluorophenyl)-3-(trifluoromethyl)-1H-pyrazole-5-carboxamide], more than 100 nM.
In the case of `NC(N)=NCCC[C@@H](N)C(=O)N[C@@H](CCCN=C(N)N)C(=O)N1CCC[C@H]1C(=O)N1C[C@H](O)C[C@H]1C(=O)NCC(=O)N[C@@H](Cc1cccs1)C(=O)N[C@@H](CO)C(=O)N1Cc2ccccc2C[C@@H]1C(=O)N1[C@H](C(=O)N[C@@H](CCCN=C(N)N)C(=O)O)C[C@@H]2CCCC[C@@H]21` [Icatibant], in data set [1] (HAE), the “efficacy in treating HAE” value is “effective”.
For Cl-inhibitor, the “clinical outcome in sepsis patients” value in the data set on sepsis patients is “Clinical improvement”. In data set [2], the lesions result was “reduce” and the “vascular permeability in multiple organs” value is “reduce”.
For “H-D-Pro-Phe-Arg-chloromethylketone [reference compound]”, the lesions entry in data set [2] is listed as “reduce”.
As to ecallantide [DX-88], the “edema in patients with hereditary angioedema” value in data set [1] (patients with HAE) is recorded as “alleviates edema”. Besides, in data set [3], the brain edema result was “reduced”, the infarct volume entry was “reduced” and the neurological deficits result was “reduced”.

B1: C1-inhibitor (protein, UniProt P05155 23-500, looked up)
Plasma protease C1 inhibitor: NPNATSSSSQDPESLQDRGEGKVATTVISKMLFVEPILEVSSLPTTNSTTNSATKITANTTDEPTTQPTTEPTTQPTIQPTQPTTQLPTDSPTQPTTGSFCPGPVTLCSDLESHSTEAVLGDALVDFSLKLYHAFSAMKKVETNMAFSPFSIASLLTQVLLGAGENTKTNLESILSYPKDFTCVHQALKGFTTKGVTSVSQIFHSPDLAIRDTFVNASRTLYSSSPRVLSNNSDANLELINTWVAKNTNNKISRLLDSLPSDTRLVLLNAIYLSAKWKTTFDPKKTRMEPFHFKNSVIKVPMMNSKKYPVAHFIDQTLKAKVGQLQLSHNLSLVILVPQNLKHRLEDMEQALSPSVFKAIMEKLEMSKFQPTLLTLPRIKVTTSQDMLSIMEKLEFFDFSYDLNLCGLTEDPDLQVSAMQHQTVLELTETGVEAAAASAISVARTLLVFEVQQPFLFVLWDQQHKFPVFMGRVYDPRA
As to B1, the infarct size entry in data set [4] is recorded as “reduced”.
